Test system: invasive stage IIA-IIIB breast adenocarcinoma
Assay: CA163-080 phase II trial: pathologic complete response (pCR) in the breast after neoadjuvant ixabepilone, Sataloff classification
Type: in vivo, human
Protocol: CA163-080 (080 trial) is an exploratory genomic phase II study that was conducted in breast cancer patients who received ixabepilone as a neoadjuvant treatment. The primary objective of this study was to identify predictive markers of response to ixabepilone through gene expression profiling of pre-treatment breast cancer biopsies. Patients with invasive stage IIA-IIIB breast adenocarcinoma (tumor size ≧3 cm diameter) received 40 mg/m^2 ixabepilone as a 3-hour infusion on Day for up to four 21-day cycles, followed by surgery within 3-4 weeks of completion of chemotherapy. A total of 164 patients were enrolled in this study. Biopsies for gene expression analysis were obtained both pre- and post-treatment. Upon isolation of biopsies from the patients, samples were either snap frozen in liquid nitrogen or placed into RNAlater solution overnight, followed by removal from the RNAlater solution. All samples were kept at −70° C. until use.
Pathological response was assessed using the Sataloff classification system (D. Sataloff et al., J. Am. Coll. Surg., 180(3):297-306 (1995)) and used as an end point for the pharmacogenomic analysis. The pathologic response was evaluated in the primary tumor site at the end of treatment and prior to surgery by assessing histologic changes compared with baseline as following: At the primary tumor site, cellular modifications were evaluated in both the infiltrating tumoral component and in the possible ductal component, to determine viable residual infiltrating component (% of total tumoral mass); residual ductal component (% of total tumoral mass); the mitotic index. Pathologic Complete Response (pCR) in the breast only was defined as T-A, Total or near total therapeutic effect in primary site. […] The response rate was defined as the number of responders divided by the number of treated patients.
Based on the definition of Pathology Complete Response (pCR), there are 23 responders and 111 non-responders in the 080 trial. Estrogen receptor 1 (ER) was previously found to be the best single-gene predictor with negative prediction value (NPV) 92% and positive prediction value (PPV) 37%, as described in PCT Publication No. ______ (PCT Application No. PCT/US2005/043261).
The data were based on the 080 trial. Patients' ER and PR status were determined by IHC assay.

[1] = 134 patients of the genomic dataset, 080 trial
[2] = ER− group of the genomic dataset

For C/C(=C\c1csc(C)n1)[C@@H]1C[C@@H]2O[C@]2(C)CCC[C@H](C)[C@H](O)[C@@H](C)C(=O)C(C)(C)[C@@H](O)CC(=O)N1 [ixabepilone], the “number of non-responders (no pCR)” value [1] was 111, the “number of responders (pCR)” value [1] was 23 and the pCR response rate (ER+ PR+ patients (IHC), 080 trial) was 4/62 = 6%. For the same molecule, the pCR response rate (ER+ PR− patients (IHC), 080 trial) was 4/15 = 26.7%, the pCR response rate (ER− PR+ patients (IHC), 080 trial) was 0/9 = 0% and the pCR response rate (ER− PR− patients (IHC), 40 mg/m^2 3-hour infusion, up to four 21-day cycles, 080 trial) was 20/61 = 33%. For the same molecule, the “number of non-responders (no pCR)” value [2] was 37, the “number of responders (pCR)” value [2] was 18 and the pCR response rate (all ER+ patients (IHC), 080 trial) was 8/77 = 10.4%. The pCR response rate (all ER− patients (IHC), 080 trial) was 20/70 = 29%, the pCR response rate (all PR+ patients (IHC), 080 trial) was 4/71 = 5.6% and the pCR response rate (all PR− patients (IHC), 080 trial) was 24/76 = 31.5%. The pCR response rate (overall, all patients with ER and PR status, 080 trial) was “Overall: 18%”.

— patent publication US20110104664A1, “BIOMARKERS AND METHODS FOR DETERMINING SENSITIVITY TO MICORTUBULE-STABILIZING AGENTS” (Bristol-Myers Squibb Company, priority 2006, published 2011)
